Measured values taken from ChEMBL document CHEMBL3885881, “DrugMatrix”.

Species: Rattus norvegicus
Assay: DrugMatrix - Regimen: Daily Repeat
Format: toxicity, organism-based, Sprague-Dawley
Set-up: regimen Daily Repeat, gender Male, age 6-8 weeks
Conditions: in vivo, iv, vehicle 100 % SALINE; for ABSOLUTE BASOPHIL / ABSOLUTE EOSINOPHIL / ABSOLUTE LYMPHOCYTE / ABSOLUTE MONOCYTE / ABSOLUTE SEGMENTED NEUTROPHIL / BASOPHIL / EOSINOPHIL / ERYTHROCYTE COUNT / HEMATOCRIT / HEMOGLOBIN / LEUKOCYTE COUNT / LYMPHOCYTE / MEAN CORPUSCULAR HEMOGLOBIN / MEAN CORPUSCULAR HEMOGLOBIN CONCENTRATION / MEAN CORPUSCULAR VOLUME / MONOCYTE / NEUTROPHIL / NUCLEATED RED BLOOD CELLS / PLATELET COUNT: tissue Blood; for ALANINE AMINOTRANSFERASE / ALBUMIN / ALKALINE PHOSPHATASE / ASPARTATE AMINOTRANSFERASE / BLOOD UREA NITROGEN / CARBON DIOXIDE / CHLORIDE / CHOLESTEROL / CREATINE PHOSPHOKINASE / CREATININE / GLUCOSE / LACTATE DEHYDROGENASE / LIPASE / PHOSPHORUS / POTASSIUM / SODIUM / TOTAL BILIRUBIN / TOTAL PROTEIN / URIC ACID: tissue Plasma
[1] = 0 mg/kg, 72 h, dose level Control, time 3 day
[2] = 0 mg/kg, 120 h, dose level Control, time 5 day
[3] = 0.5 mg/kg, 72 h, dose level Low, time 3 day

Compound: CO[C@@]12[C@H](COC(N)=O)C3=C(C(=O)C(C)=C(N)C3=O)N1C[C@@H]1N[C@@H]12 [MITOMYCIN]
- ABSOLUTE BASOPHIL [1]: 0 CELLS/uL
- ABSOLUTE EOSINOPHIL [1]: 0 CELLS/uL
- ABSOLUTE LYMPHOCYTE [1]: 7026.17 CELLS/uL
- ABSOLUTE MONOCYTE [1]: 44.33 CELLS/uL
- ABSOLUTE SEGMENTED NEUTROPHIL [1]: 379.5 CELLS/uL
- BASOPHIL [1]: 0%
- EOSINOPHIL [1]: 0%
- ERYTHROCYTE COUNT [1]: 5.49 x10E6/uL
- HEMATOCRIT [1]: 33.67%
- HEMOGLOBIN [1]: 13.17 G/DL
- LEUKOCYTE COUNT [1]: 7.45 x10E3/uL
- LYMPHOCYTE [1]: 94%
- MEAN CORPUSCULAR HEMOGLOBIN [1]: 24.03 pg
- MEAN CORPUSCULAR HEMOGLOBIN CONCENTRATION [1]: 39.15 G/DL
- MEAN CORPUSCULAR VOLUME [1]: 61.4 fL
- MONOCYTE [1]: 0.67%
- NEUTROPHIL [1]: 5.33%
- NUCLEATED RED BLOOD CELLS [1]: 0.17 /100WBC
- PLATELET COUNT [1]: 1062.5 x10E3/uL
- ALANINE AMINOTRANSFERASE [1]: 53.17 u/L
- ALBUMIN [1]: 4.33 G/DL
- ALKALINE PHOSPHATASE [1]: 339.83 u/L
- ASPARTATE AMINOTRANSFERASE [1]: 83.33 u/L
- BLOOD UREA NITROGEN [1]: 16 mg/dL
- CARBON DIOXIDE [1]: 32.5 mmol/L
- CHLORIDE [1]: 98 MEQ/L
- CHOLESTEROL [1]: 74.67 mg/dL
- CREATINE PHOSPHOKINASE [1]: 284 u/L
- CREATININE [1]: 0.2 mg/dL
- GLUCOSE [1]: 128.67 mg/dL
- LACTATE DEHYDROGENASE [1]: 110.33 u/L
- LIPASE [1]: 9 u/L
- PHOSPHORUS [1]: 11.73 mg/dL
- POTASSIUM [1]: 6.34 MEQ/L
- SODIUM [1]: 143.12 MEQ/L
- TOTAL BILIRUBIN [1]: 0.18 mg/dL
- TOTAL PROTEIN [1]: 6.2 G/DL
- URIC ACID [1]: 1.28 mg/dL
- ABSOLUTE BASOPHIL [2]: 0 CELLS/uL
- ABSOLUTE EOSINOPHIL [2]: 26.67 CELLS/uL
- ABSOLUTE LYMPHOCYTE [2]: 8334.17 CELLS/uL
- ABSOLUTE MONOCYTE [2]: 29.5 CELLS/uL
- BASOPHIL [2]: 0%
- EOSINOPHIL [2]: 0.33%
- ERYTHROCYTE COUNT [2]: 5.44 x10E6/uL
- HEMATOCRIT [2]: 33.77%
- HEMOGLOBIN [2]: 13.05 G/DL
- LEUKOCYTE COUNT [2]: 8.98 x10E3/uL
- LYMPHOCYTE [2]: 92.33%
- MEAN CORPUSCULAR HEMOGLOBIN [2]: 24 pg
- MEAN CORPUSCULAR HEMOGLOBIN CONCENTRATION [2]: 38.67 G/DL
- MEAN CORPUSCULAR VOLUME [2]: 62.05 fL
- MONOCYTE [2]: 0.33%
- NEUTROPHIL [2]: 7%
- NUCLEATED RED BLOOD CELLS [2]: 0 /100WBC
- PLATELET COUNT [2]: 987 x10E3/uL
- ALANINE AMINOTRANSFERASE [2]: 43.5 u/L
- ALBUMIN [2]: 4.08 G/DL
- ALKALINE PHOSPHATASE [2]: 310.17 u/L
- ASPARTATE AMINOTRANSFERASE [2]: 76.67 u/L
- BLOOD UREA NITROGEN [2]: 17 mg/dL
- CARBON DIOXIDE [2]: 30.67 mmol/L
- CHLORIDE [2]: 100.33 MEQ/L
- CHOLESTEROL [2]: 69.33 mg/dL
- CREATINE PHOSPHOKINASE [2]: 218.67 u/L
- CREATININE [2]: 0.22 mg/dL
- GLUCOSE [2]: 155.17 mg/dL
- LACTATE DEHYDROGENASE [2]: 114.67 u/L
- LIPASE [2]: 10.67 u/L
- PHOSPHORUS [2]: 11.2 mg/dL
- POTASSIUM [2]: 5.5 MEQ/L
- SODIUM [2]: 144.12 MEQ/L
- TOTAL BILIRUBIN [2]: 0.18 mg/dL
- TOTAL PROTEIN [2]: 5.97 G/DL
- URIC ACID [2]: 0.88 mg/dL
- ABSOLUTE BASOPHIL [3]: 0 CELLS/uL
- ABSOLUTE EOSINOPHIL [3]: 0 CELLS/uL
- ABSOLUTE LYMPHOCYTE [3]: 8042 CELLS/uL
- ABSOLUTE MONOCYTE [3]: 56.33 CELLS/uL
- ABSOLUTE SEGMENTED NEUTROPHIL [3]: 601.67 CELLS/uL
- BASOPHIL [3]: 0%
- EOSINOPHIL [3]: 0%
- ERYTHROCYTE COUNT [3]: 5.65 x10E6/uL
- HEMATOCRIT [3]: 34.47%
- HEMOGLOBIN [3]: 13.63 G/DL
- LEUKOCYTE COUNT [3]: 8.7 x10E3/uL
- LYMPHOCYTE [3]: 92.67%
- MEAN CORPUSCULAR HEMOGLOBIN [3]: 24.13 pg
- MEAN CORPUSCULAR HEMOGLOBIN CONCENTRATION [3]: 39.57 G/DL
- MEAN CORPUSCULAR VOLUME [3]: 61.07 fL
- MONOCYTE [3]: 0.67%
- NEUTROPHIL [3]: 6.67%
- NUCLEATED RED BLOOD CELLS [3]: 0 /100WBC
- PLATELET COUNT [3]: 888.67 x10E3/uL
- ALANINE AMINOTRANSFERASE [3]: 51.67 u/L
- ALBUMIN [3]: 4.27 G/DL
- ALKALINE PHOSPHATASE [3]: 324.67 u/L
- ASPARTATE AMINOTRANSFERASE [3]: 87 u/L
- BLOOD UREA NITROGEN [3]: 14.33 mg/dL
- CARBON DIOXIDE [3]: 31 mmol/L
- CHLORIDE [3]: 99 MEQ/L
- CHOLESTEROL [3]: 72 mg/dL
- CREATINE PHOSPHOKINASE [3]: 285 u/L
- CREATININE [3]: 0.26 mg/dL
- GLUCOSE [3]: 136.67 mg/dL
- LACTATE DEHYDROGENASE [3]: 100.67 u/L
- LIPASE [3]: 11.67 u/L
- PHOSPHORUS [3]: 10.87 mg/dL
- POTASSIUM [3]: 5.62 MEQ/L
- SODIUM [3]: 144.1 MEQ/L
- TOTAL BILIRUBIN [3]: 0.1 mg/dL
- TOTAL PROTEIN [3]: 5.9 G/DL
- URIC ACID [3]: 0.63 mg/dL
